Data on 4 sequences can be found in patent US7589062B2, “Two synthetic peptides for treatment and prevention of cancers” (priority 2002, dated 2009).

One assay relates to SP/2 cells. Put plainly: Cytolytic activity of trypsin digested fragments of AT and KT on SP/2 cells. The format is cell-based, mouse. The note with it: 10^5 SP/2 cells, 20-1.0 μg/ml, read after three days. The procedure:
Biological Activity of Fragments on SP/2 cells: The cytolytic activity of the trypsin digested fragments of AT and KT were tested on 10^5 SP/2 cells. Dulbecco Modified Eagle's Medium (DMEM) containing 10% newborn calf serum (NBCS), L-glutamine and antibiotics penicillin and streptomycin was used to grow SP/2 cells. Initially, each fraction was tested on cells grown in 48 well plate at 37° C. in a humid CO2 incubator. The serum free medium containing different concentrations such as 20, 10, 5, 2.5 and 1.0 μg/ml of each fragment was tested. Control cells received PBS to serve as controls.
The tests were read after three days. […] Those fragments were considered as the active domains for cancer cell inhibitor. […] The fragment 6 for AT and the fragment 10 for KT were considered as the active domains for cytolytic activity.

The next assay concerns CCL-13 - cancer of mouth. The experiment in a line: Cytolytic effect on cancer cells in culture, read microscopically. The format is cell-based, human.
In the next assay the test system is SP/2 cancer cells. Put plainly: Anti cancer activity in vivo: survival of mice injected i.p. with SP/2 cancer cells (ascitic tumors). As to conditions: Balb/c mice, 2 million SP/2 cells i.p.; 100 μg/mouse for seven consecutive days; PBS control 23 days. The procedure:
Anti Cancer Activity of Synthetic AT and KT In Vivo: Adult Balb/c mice were injected intra-peritoneally with 0.5 ml containing 2 million SP/2 cancer cells. Mice were divided into four groups. Starting from day one of post injection the mice were treated with AT and KT individually and the combination of both at 200 μg/ml concentration. Doses of 0.5 ml containing 100 μg/mouse were given for seven consecutive days and the control mice received 0.5 ml PBS.

Another assay concerns BT-20 - cancer of breast. The experiment in a line: Cytolytic effect on cancer cells in culture, read microscopically. The assay is classed as cell-based, human. The procedure:
(§1) Biological cytolytic activity of AT and KT at various concentrations ranging from […], 6.25, 12.5 and 25 μg/ml were tested on human cancer cells and SP/2 mouse myeloma cells. The combination AT+KT was 50% by weight of each.

The test system of assay [1] is Sk-ov-3 - cancer of ovary. The assay is described as above. The format is cell-based, human. The procedure:
as §1

The test system of assay [2] is HBL-100 - cancer of breast. The assay is described as above. The assay is classed as cell-based, human. The procedure: as §1
Another assay concerns HT-29 - cancer of colon. The description is as above. The assay is classed as cell-based, human. The procedure: as §1
A further assay has as its system SP/2 - mouse myeloma. The assay is described as above. The assay is classed as cell-based.
Where [3] appears, read: comparison of syn KT with syn AT.

Where no end group is shown, it is not given here.

Turning to “FCRFLLCPSRSLL (cysteine pairing not given here) [fragment 6 for AT]”, in the assay with SP/2 cells, the “Cytolytic activity of trypsin digested fragments, ranking among fragments” value is on record as “most active”.

For PPGNQPDADSN [fragment 10 for KT], in the assay on SP/2 cells, the “Cytolytic activity of trypsin digested fragments, ranking among fragments” value was “most active”.

Take PPGNQPDADS [Kaotree]: the “% Cytolyic cells CCL-13” value in the assay on CCL-13 - cancer of mouth (3.12 μg/ml) is 0%; in the assay with CCL-13 - cancer of mouth (6.25 μg/ml) it was 0%; in the assay on CCL-13 - cancer of mouth (12.5 μg/ml) it was 100%; in the assay on CCL-13 - cancer of mouth (25 μg/ml), 100%. Further, the “Survival (incubation period for development of ascitic tumors to cause death)” value with SP/2 cancer cells was 37 days. The “% Cytolyic cells BT-20” value in the assay with BT-20 - cancer of breast (3.12 μg/ml) is given as 0%; with BT-20 - cancer of breast (6.25 μg/ml), 0%; with BT-20 - cancer of breast (12.5 μg/ml), 75%; in the assay on BT-20 - cancer of breast (25 μg/ml), 100%. Further, the “Cytolytic effect compared in similar concentration, BT-20” value in the assay with BT-20 - cancer of breast (setting [3]) was “more cytolytic than AT”. In addition, the “% Cytolyic cells Sk-ov-3” value in assay [1] (3.12 μg/ml) is recorded as 0%; in assay [1] (6.25 μg/ml) it was 50%; in assay [1] (12.5 μg/ml) it was 100%; in assay [1] (25 μg/ml) it was 100%. The “% Cytolyic cells HBL-100” value in assay [2] (3.12 μg/ml) is 0%; in assay [2] (6.25 μg/ml), 50%; in assay [2] (12.5 μg/ml), 100%; in assay [2] (25 μg/ml), 100%. The “Cytolytic effect compared in similar concentration, HBL-100” value in assay [2] (setting [3]) is recorded as “more cytolytic than AT”. Besides, the “% Cytolyic cells HT-29” value with HT-29 - cancer of colon (3.12 μg/ml) was 0%; in the assay with HT-29 - cancer of colon (6.25 μg/ml) it was 0%; in the assay on HT-29 - cancer of colon (12.5 μg/ml), 100%; with HT-29 - cancer of colon (25 μg/ml), 100%. The “% Cytolyic cells SP/2” value in the assay with SP/2 - mouse myeloma (3.12 μg/ml) is recorded as 0%; with SP/2 - mouse myeloma (6.25 μg/ml) it was 50%; in the assay with SP/2 - mouse myeloma (12.5 μg/ml), 100%; in the assay on SP/2 - mouse myeloma (25 μg/ml), 100%.

As to “FCRFLLCPSR (cysteine pairing not given here) [Atroporin]”, the “% Cytolyic cells CCL-13” value was found to be 0% in the assay with CCL-13 - cancer of mouth (3.12 μg/ml), 50% with CCL-13 - cancer of mouth (6.25 μg/ml), 100% in the assay with CCL-13 - cancer of mouth (12.5 μg/ml) and 100% with CCL-13 - cancer of mouth (25 μg/ml). Further, the “Survival (incubation period for development of ascitic tumors to cause death)” value in the assay with SP/2 cancer cells was determined as 30 days. The “% Cytolyic cells BT-20” value is on record as 0% with BT-20 - cancer of breast (3.12 μg/ml), 0% in the assay with BT-20 - cancer of breast (6.25 μg/ml), 50% with BT-20 - cancer of breast (12.5 μg/ml) and 100% in the assay on BT-20 - cancer of breast (25 μg/ml). For the same sequence, the “% Cytolyic cells Sk-ov-3” value in assay [1] (3.12 μg/ml) is 0%; in assay [1] (6.25 μg/ml) it was 100%; in assay [1] (12.5 μg/ml) it was 100%; in assay [1] (25 μg/ml) it was 100%. In assay [1] (comparison of syn AT with the other peptide), the “Cytolytic effect compared in similar concentration, Sk-ov-3” value is given as “more cytolytic”. Further, the “% Cytolyic cells HBL-100” value in assay [2] (3.12 μg/ml) stood at 0%; in assay [2] (6.25 μg/ml) it was 0%; in assay [2] (12.5 μg/ml), 50%; in assay [2] (25 μg/ml), 100%. Besides, the “% Cytolyic cells HT-29” value worked out at 0% in the assay on HT-29 - cancer of colon (3.12 μg/ml), 0% in the assay with HT-29 - cancer of colon (6.25 μg/ml), 100% in the assay with HT-29 - cancer of colon (12.5 μg/ml) and 100% in the assay with HT-29 - cancer of colon (25 μg/ml). Moreover, the “% Cytolyic cells SP/2” value in the assay on SP/2 - mouse myeloma (3.12 μg/ml) was determined as 0%; in the assay on SP/2 - mouse myeloma (6.25 μg/ml) it was 0%; in the assay with SP/2 - mouse myeloma (12.5 μg/ml), 50%; with SP/2 - mouse myeloma (25 μg/ml) it was 100%.
